Data reported in patent US12673077B2, “Anthelmintic probiotic compositions and methods” (priority 2014, dated 2026).
Where two headings read alike, the source gives them in different places.

B1: Cry5B: Bacillus thuringiensis crystal (Cry) protein Cry5B, purified protein (sequence FIG. 2, SEQ ID NO:1) (protein, listed as Bacillus thuringiensis)
chain: MATINELYPVPYNVLAHPIKEVDDPYSWSNLLKGIQEGWEEWGKTGQKKLFEDHLTIAWNLYKTGKLDYFALTKASISLIGFIPGAEAAVPFINMFVDFVWPKLFGANTEGKDQQLFNAIMDAVNKMVDNKFLSYNLSTLNKTIEGLQGNLGLFQNAIQVAICQGSTPERVNFDQNCTPCNPNQPCKDDLDRVASRFDTANSQFTQHLPEFKNPWSDENSTQEFKRTSVELTLPMYTTVATLHLLLYEGYIEFMTKWNFHNEQYLNNLKVELQQLIHSYSETVRTSFLQFLPTLNNRSKSSVNAYNRYVRNMTVNCLDIAATWPTFDTHNYHQGGKLDLTRIILSDTAGPIEEYTTGDKTSGPEHSNITPNNILDTPSPTYQHSFVSVDSIVYSRKELQQLDIATYSTNNSNNCHPYGLRLSYTDGSRYDYGDNQPDFTTSNNNYCHNSYTAPITLVNARHLYNAKGSLQNVESLVVSTVNGGSGSCICDAWINYLRPPQTSKNESRPDQKINVLYPITETVNKGTGGNLGVISAYVPMELVPENVIGDVNADTKLPLTQLKGFPFEKYGSEYNNRGISLVREWINGNNAVKLSNSQSVGIQITNQTKQKYEIRCRYASKGDNNVYFNVDLSENPFRNSISFGSTESSVVGVQGENGKYILKSITTVEIPAGSFYVHITNQGSSDLFLDRIEFVPKIQFQFCDNNNLHCDCNNPVDTDCTFCCVCTSLTDCDCNNPRGLDCTLCCQVENQLPSFVTLTDLQNITTQVNALVASSEHDTLATDVSDYEIEEVVLKVDALSGEVFGKEKKALRKLVNHTKRLSKARNLLIGGNFDNLDAWYRGRNVVNVSDHELFKSDHVLLPPPTLYSSYMFQKVEESKLKANTRYTVSGFIAHAEDLEIVVSRYGQEVKKVVQVPYGEAFPLTSRGAICCPPRSTSNGKPADPHFFSYSIDVGTLDVEANPGIELGLRIVERTGMARVSNLEIREDRPLKKNELRNVQRAARNWRTAYDQERAEVTALIQPVLNQINALYENEDWNGAIRSGVSYHDLEAIVLPTLPKLNHWFMSDMLGEQGSILAQFQEALDRAYTQLEESTILHNGHFTTDAANWTIEGDAHHAILEDGRRVLRLPDWSSSVSQTIEIENFDPDKEYQLVFHAQGEGTVSLQHGEEGEYVETHPHKSANFTTSHRQGVTFETNKVTVEITSEDGEFLVDHIALVEAPLPTDDQSSDGNTTSNTNSNTSMNNNQ
modifications: pesticidal crystal (Cry)

Legend:
A. ceylanicum = conditions: cited from earlier work; for % Parasite reduction: hamsters
[1] = system: Ancylostoma ceylanicum hookworms; test: A. ceylanicum hookworm curative experiment in hamsters (worm burdens, fecal egg counts); assay type: in vivo; conditions: single 10 mg/kg (71 nmol/kg) Cry5B dose per os
Experimental: (A) Intestinal hookworm burdens in nine hamsters following treatment with PY79-vector or PY79-Cry5B (10 mg/kg Cry5B) (error bars in all panels show standard errors). The average worm burdens were 18.6±2.6 and 1.3±0.3 for PY79-vector and PY79-Cry5B, respectively. (B) Fecal egg counts on day −1, day +1, and day +3 relative to the day of treatment. The actual egg counts for PY79-vector and PY79-Cry5B were 965±193 and 1,044±99, respectively, on day −1, 1,055±230 and 94±60, respectively, on day +1, and 1,055±227 and 100±42, respectively, on day +3. EPG, eggs per gram of feces. (C) In vivo dose-response experiment with 12 hamsters. […]
For in vivo curative experiments, male hamsters were infected per os with 150 A. ceylanicum infectious larvae. On day 17 postinoculation (p.i.), a fecal sample was collected from each hamster, and the number of eggs was counted using the modified McMaster technique (13). […] The hamsters were sacrificed on day 22 p.i., and intestinal parasite burdens were determined as described previously (14). The one-tailed Mann-Whitney test was performed to compare the two groups for significance in the experiment using a dose of 10 mg/kg of body weight (data were calculated and plotted using Prism 5 [GraphPad Software Inc., La Jolla, CA]). […]

Molecule | % Parasite reduction (A. ceylanicum; 10 mg/kg) | also measured
CCCSc1ccc2nc(NC(=O)OC)[nH]c2c1 [Albendazole, albendazole] |  | % Parasite reduction (A. ceylanicum; 1.25 mg/kg (4.7 μmol/kg)): 88%
c1ccc([C@H]2CN3CCSC3=N2)cc1 [Levamisole, levamisole] | 60% | 
CN1CCCN=C1/C=C/c1cccs1 [Pyrantel, pyrantel] | 87% | 
C/C(=N/c1ccc(/N=C/c2ccc(/C=N/c3ccc(/N=C(/C)N(C)C)cc3)cc2)cc1)N(C)C [Tribendimidine, tribendimidine] | 75% | 
B1 |  | % reduction of hookworm burden relative to control [1]: 93%; % reduction of hookworm burden (A. ceylanicum; purified protein 10 mg/kg, previously published data (ref 14)): 65%
